In patent publication US12404241B2 (Celgene Corporation, priority 2018, dated 2025):
Where a name gives a salt, the structure may show the parent alone.

Target: T1, AR (Homo sapiens, UniProt P10275)
T1 construct: endogenous in cells; host or cells: VCaP cells
T1 sequence (P10275 1-920): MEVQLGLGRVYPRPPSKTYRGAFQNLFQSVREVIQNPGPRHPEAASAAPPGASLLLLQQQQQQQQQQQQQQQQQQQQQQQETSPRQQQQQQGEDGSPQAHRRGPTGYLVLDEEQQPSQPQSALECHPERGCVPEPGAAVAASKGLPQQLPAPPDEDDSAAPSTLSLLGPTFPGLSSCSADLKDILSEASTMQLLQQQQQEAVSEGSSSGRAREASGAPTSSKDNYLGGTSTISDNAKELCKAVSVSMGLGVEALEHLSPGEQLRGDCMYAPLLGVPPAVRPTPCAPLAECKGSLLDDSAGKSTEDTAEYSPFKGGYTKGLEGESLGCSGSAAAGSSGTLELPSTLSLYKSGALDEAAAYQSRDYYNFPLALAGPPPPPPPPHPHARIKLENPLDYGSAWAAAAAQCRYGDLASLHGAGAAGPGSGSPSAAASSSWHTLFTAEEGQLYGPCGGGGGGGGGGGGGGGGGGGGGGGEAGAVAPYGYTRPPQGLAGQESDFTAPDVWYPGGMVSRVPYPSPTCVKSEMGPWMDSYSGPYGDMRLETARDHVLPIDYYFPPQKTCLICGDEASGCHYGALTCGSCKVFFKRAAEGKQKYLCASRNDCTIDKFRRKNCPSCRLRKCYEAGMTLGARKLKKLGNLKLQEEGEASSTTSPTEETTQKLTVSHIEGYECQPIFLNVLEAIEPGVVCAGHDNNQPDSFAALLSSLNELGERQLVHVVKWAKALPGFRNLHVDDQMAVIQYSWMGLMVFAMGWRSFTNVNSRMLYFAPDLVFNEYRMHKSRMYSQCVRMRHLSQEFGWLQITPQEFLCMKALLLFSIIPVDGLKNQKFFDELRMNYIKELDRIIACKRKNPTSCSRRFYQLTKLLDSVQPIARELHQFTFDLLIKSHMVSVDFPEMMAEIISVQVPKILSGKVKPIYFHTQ
Experiment: VCAP AR Degradation Assay
Format: cell-based
Conditions: for Y (AR degradation efficiency, % of DMSO control): class symbols *; for DC50: class symbols A-C, read-out: DC50
In short: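 AR protein in lysates quantified by sandwich ELISA after 24 h exposure of VCaP cells at 37 °C to 10 concentrations (1:3 steps, 5 μM top, final). Four-parameter logistic fit of percent-of-DMSO levels gave DC50 (50% degradation), EC50 and minimal AR level Y.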

Row | SMILES | Y (AR degradation efficiency, % of DMSO control) | DC50 [µM]
1 | C[C@@H]1CN(CCOc2ccc(N3C(=S)N(c4cnc(C#N)c(C(F)(F)F)c4)C(=O)C34CCC4)cc2C2CC2)C[C@H](C)N1CC(=O)Nc1cc(C#N)cc(NC2CCC(=O)NC2=O)c1 (stereo partly drawn) [Example 212, N-(3-cyano-5-(2,6-dioxopiperidin-3-ylamino)phenyl)-2-((2S,6R)-4-(2-(4-(7-(6-cyano-5-(trifluoromethyl)pyridin-3-yl)-8-oxo-6-thioxo-5,7-diazaspiro[3.4]octan-5-yl)-2-cyclopropylphenoxy)ethyl)-2,6-dimethylpiperazin-1-yl)acetamide] | * (0<Y<=25%) | < 0.1
2 | CCc1cc(N2C(=S)N(c3ccc(C#N)c(C(F)(F)F)c3)C(=O)C2(C)C)ccc1OCCN1CCN([C@H](C)C(=O)Nc2cccc(NC3CCC(=O)NC3=O)c2)CC1 (stereo partly drawn) [Example 199, (2R)-2-(4-(2-(4-(3-(4-cyano-3-(trifluoromethyl)phenyl)-5,5-dimethyl-4-oxo-2-thioxoimidazolidin-1-yl)-2-ethylphenoxy)ethyl)piperazin-1-yl)-N-(3-(2,6-dioxopiperidin-3-ylamino)phenyl)propanamide] | ** (25%<Y<=35%) | < 0.1
3 | CC1(C)C(=O)N(c2cnc(C#N)c(C(F)(F)F)c2)C(=S)N1c1ccc(OCCN2CCN(CC(=O)Nc3cc(Cl)cc(NC4CCC(=O)NC4=O)c3)CC2)c(CO)c1 (stereo not shown) [Example 91, N-(3-chloro-5-(2,6-dioxopiperidin-3-ylamino)phenyl)-2-(4-(2-(4-(3-(6-cyano-5-(trifluoromethyl)pyridin-3-yl)-5,5-dimethyl-4-oxo-2-thioxoimidazolidin-1-yl)-2-(hydroxymethyl)phenoxy)ethyl)piperazin-1-yl)acetamide] | *** (35%<Y<50%) | < 0.1
4 | C[C@@H]1CN(CCOc2ccc(N3C(=S)N(c4ccc(C#N)c(C(F)(F)F)c4)C(=O)C3(C)C)cc2C2CCC2)C[C@H](C)N1CC(=O)Nc1cccc(NC2CCC(=O)NC2=O)c1 (stereo partly drawn) [Example 259, 2-((2R,6S)-4-(2-(4-(3-(4-cyano-3-(trifluoromethyl)phenyl)-5,5-dimethyl-4-oxo-2-thioxoimidazolidin-1-yl)-2-cyclobutylphenoxy)ethyl)-2,6-dimethylpiperazin-1-yl)-N-(3-(2,6-dioxopiperidin-3-ylamino)phenyl)acetamide] | * (0<Y<=25%) | < 0.1
5 | CC(C)c1cc(N2C(=S)N(c3cnc(C#N)c(C(F)(F)F)c3)C(=O)C2(C)C)ccc1OCCN1CCN(CC(=O)Nc2cccc(NC3CCC(=O)NC3=O)c2)[C@H](C)C1 (stereo partly drawn) [Example 163, 2-((R)-4-(2-(4-(3-(6-cyano-5-(trifluoromethyl)pyridin-3-yl)-5,5-dimethyl-4-oxo-2-thioxoimidazolidin-1-yl)-2-isopropylphenoxy)ethyl)-2-methylpiperazin-1-yl)-N-(3-(2,6-dioxopiperidin-3-ylamino)phenyl)acetamide] | * (0<Y<=25%) | 0.1 to 0.5
6 | CCc1cc(N2C(=S)N(c3ccc(C#N)c(C(F)(F)F)c3)C(=O)C2(C)C)c(C)cc1OCCN1C[C@@H](C)N(CC(=O)Nc2cccc(NC3CCC(=O)NC3=O)c2)[C@@H](C)C1 (stereo partly drawn) [Example 254, 2-((2S,6R)-4-(2-(4-(3-(4-cyano-3-(trifluoromethyl)phenyl)-5,5-dimethyl-4-oxo-2-thioxoimidazolidin-1-yl)-2-ethyl-5-methylphenoxy)ethyl)-2,6-dimethylpiperazin-1-yl)-N-(3-(2,6-dioxopiperidin-3-ylamino)phenyl)acetamide] | * (0<Y<=25%) | < 0.1
7 | CCc1cc(N2C(=S)N(c3cnc(C#N)c(C(F)(F)F)c3)C(=O)C2(C)C)ccc1OCCN1CCN([C@H](C)C(=O)Nc2cc(Cl)cc(NC3CCC(=O)NC3=O)c2)CC1 (single isomer, unassigned) [Example 113] | * (0<Y<=25%) | < 0.1
8 | CCc1cc(N2C(=S)N(c3ccc(C#N)c(C(F)(F)F)c3)C(=O)C2(C)C)ccc1OCCN1CCN(CC(=O)Nc2cccc(N[C@H]3CCC(=O)NC3=O)c2)CC1 [Example 27, hydrochloride] | * (0<Y<=25%) | < 0.1
9 | CCc1cc(N2C(=S)N(c3ccc(C#N)c(C(F)(F)F)c3)C(=O)C2(C)C)ccc1OCCN1CCN(CC(=O)Nc2cccc(NC3CCC(=O)NC3=O)c2)[C@H](CO)C1 (stereo partly shown) [Example 50] | *** (35%<Y<50%) | 0.5 to 1
10 | CCc1cc(N2C(=S)N(c3ccc(C#N)c(C(F)(F)F)c3)C(=O)C2(C)C)cnc1OCCN1CCN(CC(=O)Nc2cccc(NC3CCC(=O)NC3=O)c2)[C@H](C)C1 (stereo partly drawn) [Example 187, 2-((R)-4-(2-(5-(3-(4-cyano-3-(trifluoromethyl)phenyl)-5,5-dimethyl-4-oxo-2-thioxoimidazolidin-1-yl)-3-ethylpyridin-2-yloxy)ethyl)-2-methylpiperazin-1-yl)-N-(3-(2,6-dioxopiperidin-3-ylamino)phenyl)acetamide] | * (0<Y<=25%) | < 0.1
11 | CCc1cc(N2C(=S)N(c3cnc(C#N)c(Cl)c3)C(=O)C2(C)C)ccc1OCCN1CCN(CC(=O)Nc2cccc(NC3CCC(=O)NC3=O)c2)[C@H](C)C1 (stereo partly drawn) [Example 167, 2-((R)-4-(2-(4-(3-(5-chloro-6-cyanopyridin-3-yl)-5,5-dimethyl-4-oxo-2-thioxoimidazolidin-1-yl)-2-ethylphenoxy)ethyl)-2-methylpiperazin-1-yl)-N-(3-(2,6-dioxopiperidin-3-ylamino)phenyl)acetamide] | * (0<Y<=25%) | < 0.1
12 | C[C@@H]1CN(CCOc2ccc(N3C(=S)N(c4ccc(C#N)c(Cl)c4)C(=O)C3(C)C)cc2C(C)(F)F)C[C@H](C)N1CC(=O)Nc1cccc(NC2CCC(=O)NC2=O)c1 (stereo partly drawn) [Example 269, 2-((2S,6R)-4-(2-(4-(3-(3-chloro-4-cyanophenyl)-5,5-dimethyl-4-oxo-2-thioxoimidazolidin-1-yl)-2-(1,1-difluoroethyl)phenoxy)ethyl)-2,6-dimethylpiperazin-1-yl)-N-(3-(2,6-dioxopiperidin-3-ylamino)phenyl)acetamide] | * (0<Y<=25%) | < 0.1
13 | CC(C)c1cc(N2C(=S)N(c3ccc(C#N)c(Cl)c3)C(=O)C2(C)C)ccc1OCCN1C[C@@H](C)N(CC(=O)Nc2cc(NC3CCC(=O)NC3=O)ccc2F)[C@@H](C)C1 (stereo partly drawn) [Example 222, 2-((2S,6R)-4-(2-(4-(3-(3-chloro-4-cyanophenyl)-5,5-dimethyl-4-oxo-2-thioxoimidazolidin-1-yl)-2-isopropylphenoxy)ethyl)-2,6-dimethylpiperazin-1-yl)-N-(5-(2,6-dioxopiperidin-3-ylamino)-2-fluorophenyl)acetamide] | * (0<Y<=25%) | 0.1 to 0.5
14 | CC1(C)C(=O)N(c2cnc(C#N)c(C(F)(F)F)c2)C(=S)N1c1ccc(OCCN2CCN(CC(=O)Nc3cccc(NC4CCC(=O)NC4=O)c3)CC2)c(CCF)c1 (stereo not shown) [Example 161, 2-(4-(2-(4-(3-(6-cyano-5-(trifluoromethyl)pyridin-3-yl)-5,5-dimethyl-4-oxo-2-thioxoimidazolidin-1-yl)-2-(2-fluoroethyl)phenoxy)ethyl)piperazin-1-yl)-N-(3-(2,6-dioxopiperidin-3-ylamino)phenyl)acetamide] | * (0<Y<=25%) | < 0.1
15 | CC1(C)C(=O)N(c2cnc(C#N)c(C(F)(F)F)c2)C(=S)N1c1ccc(OCCN2CCN(CC(=O)Nc3cc(NC4CCC(=O)NC4=O)ccc3F)CC2)c(CCF)c1 (stereo not shown) [Example 71, 2-(4-(2-(4-(3-(6-cyano-5-(trifluoromethyl)pyridin-3-yl)-5,5-dimethyl-4-oxo-2-thioxoimidazolidin-1-yl)-2-(2-fluoroethyl)phenoxy)ethyl)piperazin-1-yl)-N-(5-(2,6-dioxopiperidin-3-ylamino)-2-fluorophenyl)acetamide] | * (0<Y<=25%) | < 0.1
16 | Cc1cc(NC(=O)CN2CCN(CCOc3ccc(N4C(=S)N(c5ccc(C#N)c(C(F)(F)F)c5)C(=O)C4(C)C)cc3F)CC2)cc(NC2CCC(=O)NC2=O)c1 (stereo not shown) [Example 15, hydrochloride] | ** (25%<Y<=35%) | < 0.1
17 | CCc1cc(N2C(=S)N(c3ccc(C#N)c(C(F)(F)F)c3)C(=O)C2(C)C)ccc1OCCN1CCN(CC(=O)Nc2cc(C#N)cc(NC3CCC(=O)NC3=O)c2)[C@H](C)C1 (stereo partly drawn) [Example 154, 2-((R)-4-(2-(4-(3-(4-cyano-3-(trifluoromethyl)phenyl)-5,5-dimethyl-4-oxo-2-thioxoimidazolidin-1-yl)-2-ethylphenoxy)ethyl)-2-methylpiperazin-1-yl)-N-(3-cyano-5-(2,6-dioxopiperidin-3-ylamino)phenyl)acetamide] | * (0<Y<=25%) | < 0.1
